The results in this text go back to patent publication EP2753335B1, “AN ANTHRACYCLINE FOR THE TREATMENT OF SEPSIS” (Instituto de Medicina Molecular, priority 2011, dated 2013).

The subject of one experiment is TNF. Put plainly: In vitro chemical screen (Spectrum collection): TNF secretion by E. coli challenged THP-1 cells, DAS-ELISA. The class given is cell-based, human. As to conditions: THP-1 cells, 10µM compound for 1 hour, then PFA-fixed E. coli (MOI 20) for 24 hours. As for the experimental part: (§1) We identified 45 leading candidates (Figure 1A and Table I) that inhibited both cytokines.
(§2) THP-1 human monocytes (American Tissue Culture Collection-ATCC TIB-202) were plated in 96 well plates at 10^6 cell/ml and incubated with each one of ∼2320 compounds included in the Spectrum collection (Microsource Discovery Systems, Gaylordsville, CT) at 10µM for 1 hour. Cells were then challenged with 4% PFA-fixed DH5α E.coli at a Multiplicity of Infection (MOI) of 20 bacterial cells per THP-1 cell for an additional 24 hours. The cell supernatants were collected and IL-1β and TNF cytokines quantified by DAS-ELISA, using Human IL-1β/IL-1F2 DuoSet® and Human TNF DuoSet® (R&D Systems ®), respectively, according to company's protocol.
(§3) We generated a working subset of The RNAi Consortium (TRC) shRNA lentiviral vector library ^33,33 that allows for the silencing of most of the genes that are either human kinases or phosphatases. This subset was composed of 1440 individually arrayed lentiviral shRNA vectors targeting ∼700 genes, after selecting the most efficient shRNAs (two on average) based on available silencing efficiency data from the Broad Institute of MIT and Harvard. THP-1 cells were plated in 96 well plates at 10^6 cell/ml and infected with shRNA-expressing lentivirus. 48 hrs later infected cells were selected with puromycin. After the 3 days of selection, plates were duplicated. One of the plates was used to measure the cell number using Alamar Blue® cell viability assay (Invitrogeia®), according to manufacturer's instructions. In the other plate, cells were stimulated with 4% PFA-fixed DH5α E.coli at a Multiplicity of Infection (MOI) of 20 bacterial cells per THP-1 cell. Twenty-four hours after stimulation, cell supernatants were collected and IL-1β and TNF cytokines quantified by DAS-ELISA. All data values from IL-1β and TNF secretion assays were normalized by dividing the amount of IL-1β and TNF in the conditioned media 24, 12, 8, 6, 4 or 2 hrs after E. coli stimulation by the number of cells in each well and then by the average concentration per cell of the plate. Results were logarithmic natural transformed. Scores were sorted in ascending order and graphed. We calculated 1.5 SDEVs above and below the mean to identify the genes that changed IL-1β and TNF secretion when silenced. The same approach was used to identify the compounds that changed IL-1β and TNF secretion. The selected genes were submitted to two or more rounds of phenotypic validation.
A general note: ELISA stands for enzyme-linked immunosorbent assay.

For another experiment, the system named is IL-1β. Put plainly: In vitro chemical screen (Spectrum collection): IL-1β secretion by E. coli challenged THP-1 cells, DAS-ELISA. The class given is cell-based, human. As to conditions: THP-1 cells, 10µM compound for 1 hour, then PFA-fixed E. coli (MOI 20) for 24 hours. How it is done: as §1, §2, §3

Structures can show the parent of a compound that is named as a salt.

For the compound `C=C1C(=O)O[C@@H]2[C@H]3O[C@]3(C)CC/C=C(\C)CC[C@@H]12` [parthenolide], the “Z score TNFa” value with TNF was -2,842267433. In addition, in the experiment with IL-1β, the “Z score IL1b” value was -0,921962794. `C[C@]12C=CC(=O)C=C1CC[C@@H]1[C@@H]2[C@@H](O)C[C@@]2(C)[C@H]1CC[C@]2(O)C(=O)COC(=O)CCC(=O)O` [Prednisolone hemisuccinate]: in the experiment on TNF, the “Z score TNFa” value is recorded as -2,72427413. Also, the “Z score IL1b” value in the experiment with IL-1β is -2,095888301. For `C=C1C(=O)O[C@H]2C[C@@H]1C(OC(C)=O)C/C(C)=C/CC/C(C)=C/CC[C@@]2(C)O` (some centres unmarked) [Crassin acetate] the same measures were -4,448741528 and -2,126298968.

Turning to `C=C1C(=O)O[C@@H]2C[C@@]3(C)CCC[C@H](C)C3=C[C@H]12` [Helenine], the “Z score TNFa” value with TNF is recorded as -2,683894042. In the experiment on IL-1β, the “Z score IL1b” value is reported as -0,943744357.

For Mepartricin, the “Z score TNFa” value with TNF is given as -2,504992413. Further, the “Z score IL1b” value in the experiment with IL-1β was -1,081865327. On the same counts, the results for `CS(=O)(=O)CCCCN=C=S` [Erysolin] are -4,442389411 and -1,162701697. Take `CC(C)=CCC[C@]1(C)C=Cc2c(O)c3c(c(CC=C(C)C)c2O1)O[C@]12C(=C[C@@H]4C[C@H]1C(C)(C)O[C@@]2(C/C=C(/C)C(=O)O)C4=O)C3=O` [Gambogic acid]: in the experiment with TNF, the “Z score TNFa” value is given as -3,862359373. Besides, the “Z score IL1b” value in the experiment on IL-1β is on record as -1,529656531. Take `CC(=O)O[C@@H]1C[C@@]2(C)[C@H](c3ccoc3)C[C@H]3O[C@]32[C@]2(C)C(=O)C(O)=C3C(C)(C)C(=O)C=C[C@]3(C)[C@@H]12` [Anthothecol]: the “Z score TNFa” value in the experiment on TNF is on record as -2,834385142. The “Z score IL1b” value with IL-1β is listed as -1,868706598. As to `C[C@@H]1C[C@H]2[C@@H]3CCC4=CC(=O)C=C[C@]4(C)[C@@]3(F)[C@@H](O)C[C@]2(C)[C@H]1C(=O)CO` [Desoxymetasone], the “Z score TNFa” value with TNF is -2,417754689. Further, in the experiment on IL-1β, the “Z score IL1b” value was -0,995122645. On to `CC1(C)C(=O)C=C[C@]2(C)[C@H]3CC[C@@]4(C)[C@H](c5ccoc5)OC(=O)[C@H]5O[C@]54[C@]3(C)C=C[C@@H]12` [7-desacetoxy-6,7-dehydrogedunin], for which, in the experiment with TNF, the “Z score TNFa” value is -2,517707805. Moreover, the “Z score IL1b” value in the experiment on IL-1β is given as -1,789647817. On the same counts, the results for `Cc1c(O)c(O)cc2c1CC=C1[C@@]2(C)CC[C@@]2(C)[C@@H]3C[C@](C)(C(=O)O)CC[C@]3(C)CC[C@]12C` [Dihydrocelastrol] are -3,387513735 and -1,102010407. For `C[C@H](NCCc1ccc(O)cc1)[C@H](O)c1ccc(O)cc1` (racemic) [Ritodrine hydrochloriide] the same measures were -2,149761571 and -1,268303571. As to `CC(=O)Oc1c2c(c(CC=C(C)C)c3c1C(=O)C1=C[C@@H]4CC5C(C)(C)OC(C/C=C(\C)C(=O)O)(C4=O)[C@@]15O3)OC(C)(CCC=C(C)C)C=C2` (some centres unmarked) [Acetyl isogambogic acid], in the experiment with TNF, the “Z score TNFa” value is given as -3,056795183. Also, the “Z score IL1b” value in the experiment on IL-1β is on record as -1,48116787. As to Gramicidin, the “Z score TNFa” value in the experiment with TNF was -2,91855912. Further, the “Z score IL1b” value with IL-1β is listed as -1,84556962. For `C[n+]1cc2c3c(ccc2c2ccc4cc5c(cc4c21)OCO5)OCO3` [Sanguinarine sulfate], the “Z score TNFa” value with TNF is -2,651620816. Further, the “Z score IL1b” value with IL-1β was -1,160017114. Consider `CCC(=O)OCC(=O)[C@@]1(OC(=O)CC)[C@H](C)C[C@H]2[C@H]3[C@H]([C@@H](O)C[C@@]21C)[C@@]1(C)C=CC(=O)C=C1C[C@H]3Cl` [Alclometazone dipropionate], for which the “Z score TNFa” value in the experiment with TNF is on record as -1,999200408. In the experiment with IL-1β, the “Z score IL1b” value is given as -0,922964076. As to `COC(=O)[C@]1(C)CC[C@]2(C)CC[C@]3(C)C4=CC=C5C(=CC(=O)C(O)=C5C)[C@]4(C)CC[C@@]3(C)[C@@H]2C1` [Pristimerin], the “Z score TNFa” value with TNF was -3,474946679. The “Z score IL1b” value in the experiment with IL-1β is listed as -0,952562058. Turning to `CCCCC(CC)CNC(=N)NC(=N)NCCCCCCNC(=N)NC(=N)NCC(CC)CCCC` (centres unmarked) [Alexidine hydrochloride], the “Z score TNFa” value with TNF is given as -2,648173863.
